Consider 3 compounds from patent publication US10604554B2, “Double-acylated GLP-1 derivatives” (Novo Nordisk A/S, priority 2012, dated 2020).

As usually defined, the half-life is the time in which the quantity being followed falls by half. High values mean slow loss, low ones fast loss. By EC50 is commonly meant the midpoint of the concentration-response curve.

Each structure is given as a SMILES string. Numbered stars: 1 amine (or outer) side, 2 acyl side, 3 side chain; on linkers, the order of the positions; unused ones are H or OH. Square brackets hold non-standard residues; d marks the D form. Side chains are listed from the residue outwards. Peptide text beside a SMILES is read from it. * marks the point of attachment. Decanoyl(10-(4-HOOC-PhO)) = O=C(O)c1ccc(OCCCCCCCCCC(=O)*)cc1; γGlu = O=C(O)[C@H](CCC(=O)[*:2])N[*:1]; εLys = N[C@@H](CCCCN[*:1])C(=O)[*:2]; AEEA = NCCOCCOCC(=O)O; Aib = CC(C)(N)C(=O)O

Data set [1] is described as follows: Pharmacokinetic (PK) study in rat. The settings on record: male, Sprague Dawley, in vivo, iv, 6 nmol/kg.
A short description of data set [2]: Pharmacokinetic (PK) study in minipig. As to conditions: male, Göttingen, in vivo, iv.
The target in another data set is T1, human GLP-1 receptor (Homo sapiens, UniProt P43220).
T1 construct: expressed in transfected cells; host or cells: BHK cells, clone FCW467-12A/KZ10-1 (parent line BHKTS13), further transfected with CRE luciferase
The experiment in a line: In vitro potency (AlphaScreen cAMP, membranes). Format: biochemical. The protocol: The purpose of this example is to test the activity, or potency, of the GLP-1 derivatives in vitro.
Purified plasma membranes from a stable transfected cell line, BHK467-12A (tk-ts13), expressing the human GLP-1 receptor were stimulated with the GLP-1 analogue or derivative in question, and the potency of cAMP production was measured using the AlphaScreen™ cAMP Assay Kit from Perkin Elmer Life Sciences. The basic principle of the AlphaScreen Assay is a competition between endogenous cAMP and exogenously added biotin-cAMP. The capture of cAMP is achieved by using a specific antibody conjugated to acceptor beads.
A stable transfected cell line and a high expressing clone were selected for screening. The cells were grown at 5% CO2 in DMEM, 5% FCS, 1% Pen/Strep (Penicillin/Streptomycin) and 0.5 mg/ml of the selection marker G418.
Cells at approximately 80% confluence were washed 2× with PBS and harvested with Versene (aqueous solution of the tetrasodium salt of ethylenediaminetetraacetic acid), centrifuged 5 min at 1000 rpm and the supernatant removed. The additional steps were all performed on ice. The cell pellet was homogenised by the Ultrathurax for 20-30 s in 10 ml of Buffer 1 (20 mM Na-HEPES, 10 mM EDTA, pH=7.4), centrifuged 15 min at 20,000 rpm and the pellet resuspended in 10 ml of Buffer 2 (20 mM Na-HEPES, 0.1 mM EDTA, pH=7.4). The suspension was homogenised for 20-30 s and centrifuged 15 min at 20,000 rpm. Suspension in Buffer 2, homogenisation and centrifugation was repeated once and the membranes were resuspended in Buffer 2. The protein concentration was determined and the membranes stored at −80° C. until use.
The assay was performed in flat-bottom 96-well plates (Costar cat. no:3693). The final volume per well was 50 μl.
AlphaScreen cAMP Assay Kit from Perkin Elmer Life Sciences (cat. No: 6760625M); containing Anti-cAMP Acceptor beads (10 U/μl), Streptavidin Donor beads (10 U/μl) and Biotinylated-cAMP (133 U/μl).
AlphaScreen Buffer, pH=7.4: 50 mM TRIS-HCl (Sigma, cat.no: T3253); 5 mM HEPES (Sigma, cat.no: H3375); 10 mM MgCl2, 6H2O (Merck, cat.no: 5833); 150 mM NaCl (Sigma, cat.no: S9625); 0.01% Tween (Merck, cat.no: 822184). The following was added to the AlphaScreen Buffer prior to use (final concentrations indicated): BSA (Sigma, cat. no. A7906): 0.1%; IBMX (Sigma, cat. no. 15879): 0.5 mM; ATP (Sigma, cat. no. A7699): 1 mM; GTP (Sigma, cat. no. G8877): 1 uM.
cAMP standard (dilution factor in assay=5): cAMP Solution: 5 μL of a 5 mM cAMP-stock+495 μL AlphaScreen Buffer.
Membranes were prepared from hGLP-1/BHK 467-12A cells with a concentration of 6 μg/well corresponding to 0.6 mg/ml (the amount of membranes used pr. well may vary)
“No membranes”: Acceptor Beads (15 μg/ml final) in AlphaScreen buffer
“6 μg/well membranes”: membranes+Acceptor Beads (15 μg/ml final) in AlphaScreen buffer
An aliquot (10 μl) of “No membranes” was added to the cAMP standard (per well in duplicate wells) and the positive and negative controls
An aliquot (10 μl) of “6 μg/well membranes” was added to GLP-1 and analogues (per well in duplicate or triplicate wells)
Pos. Control: 10 μl “no membranes”+10 μl AlphaScreen Buffer
Neg. Control: 10 μl “no membranes”+10 μl cAMP Stock Solution (50 μM)
As the beads are sensitive to direct light, any handling was in the dark (as dark as possible), or in green light. All dilutions were made on ice.
1. Make the AlphaScreen Buffer.
2. Dissolve and dilute the GLP-1/Analogues/cAMP standard in AlphaScreen Buffer.
3. Make the Donor Beads Solution by mixing streptavidin donor beads (2 units/well) and biotinylated cAMP (1.2 units/well) and incubate 20-30 min in the dark at room temperature
4. Add the cAMP/GLP-1/Analogues to the plate: 10 μl per well.
5. Prepare membrane/Acceptor Beads solution and add this to the plates: 10 μl per well.
6. Add the Donor Beads: 30 μl per well.
7. Wrap the plate in aluminum foil and incubate on the shaker for 3 hours (very slowly) at RT.
Background: Bead proximity is the source of the signal in Alpha formats.

Data set [3] deals with Landrace Yorkshire Duroc (LYD) pigs. In words: Pharmacodynamic (PD) study in pigs, food intake. Format: in vivo, pig. The settings on record: single s.c. dose 3.0 nmol/kg. The protocol: The purpose of this experiment was to investigate the effect of a couple of Example compounds on food intake in pigs. This was done in a pharmacodynamic (PD) study as described below, in which food intake was measured from 1 to 4 days after administration of a single dose of the GLP-1 derivative, as compared to a vehicle-treated control group.
Female Landrace Yorkshire Duroc (LYD) pigs, approximately 3 months of age, weighing approximately 30-35 kg were used (n=3-4 per group). The animals were housed in a group for approximately 1 week during acclimatisation to the animal facilities. During the experimental period the animals were placed in individual pens at least 2 days before dosing and during the entire experiment for measurement of individual food intake. The animals were fed ad libitum with pig fodder (Svinefoder Danish Top) at all times both during the acclimatisation and the experimental period. Food intake was monitored on line by logging the weight of fodder every 15 minutes. The system used was Mpigwin (Ellegaard Systems, Faaborg, Denmark).
The phosphate buffer serves as vehicle. Animals are dosed with a single subcutaneous dose of the GLP-1 derivative or vehicle (dose volume 0.025 ml/kg) on the morning of day 1, and food intake is measured for 1 day after dosing. On the last day of each study, 1-4 days after dosing, a blood sample for measurement of plasma exposure of the GLP-1 derivative is taken from the heart in anaesthetised animals. The animals are thereafter euthanised with an intra-cardial overdose of pentobarbitone.
Food intake is calculated as mean±SEM food intake in 24 h intervals (0-24 h, 24-48 h, and 48-72 h). In Table 6 below the food intake is indicated as percentage of the food intake of the vehicle group in the same time interval (dosage 3.0 nmol/kg).
Statistical comparisons of the food intake in the 24 h intervals in the vehicle vs. GLP-1 derivative group are done using two-way-ANOVA repeated measures, followed by Bonferroni post-test.

T1 sequence (P43220 24-463): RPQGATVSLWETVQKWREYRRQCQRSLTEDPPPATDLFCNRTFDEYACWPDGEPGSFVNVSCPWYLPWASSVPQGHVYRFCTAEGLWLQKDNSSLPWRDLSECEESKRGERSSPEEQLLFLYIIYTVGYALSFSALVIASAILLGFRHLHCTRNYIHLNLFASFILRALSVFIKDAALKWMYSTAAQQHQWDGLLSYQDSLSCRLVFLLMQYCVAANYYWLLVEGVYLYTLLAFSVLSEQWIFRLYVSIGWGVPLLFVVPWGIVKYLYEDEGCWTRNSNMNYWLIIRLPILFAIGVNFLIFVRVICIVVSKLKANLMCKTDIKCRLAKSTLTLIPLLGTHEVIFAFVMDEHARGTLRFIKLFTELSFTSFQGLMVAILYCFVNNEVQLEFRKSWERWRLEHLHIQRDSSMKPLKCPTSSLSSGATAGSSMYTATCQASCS

In the case of `CC[C@H](C)[C@H](NC(=O)[C@H](Cc1ccccc1)NC(=O)[C@H](CCC(=O)O)NC(=O)[C@H](CCCCNC(=O)[C@@H](N)CCCCNC(=O)[C@@H](N)CCCCNC(=O)CC[C@H](NC(=O)CCCCCCCCCCCOc1ccc(C(=O)O)cc1)C(=O)O)NC(=O)[C@H](C)NC(=O)[C@H](C)NC(=O)[C@H](CCC(N)=O)NC(=O)CNC(=O)[C@H](CCC(=O)O)NC(=O)[C@H](CC(C)C)NC(=O)[C@H](Cc1ccc(O)cc1)NC(=O)[C@H](CO)NC(=O)[C@H](CO)NC(=O)[C@@H](NC(=O)[C@H](CC(=O)O)NC(=O)[C@H](CO)NC(=O)[C@@H](NC(=O)[C@H](Cc1ccccc1)NC(=O)[C@@H](NC(=O)CNC(=O)[C@H](CCC(=O)O)NC(=O)C(C)(C)NC(=O)[C@@H](N)Cc1c[nH]cn1)[C@@H](C)O)[C@@H](C)O)C(C)C)C(=O)N[C@@H](C)C(=O)N[C@@H](Cc1c[nH]c2ccccc12)C(=O)N[C@@H](CC(C)C)C(=O)N[C@H](C(=O)N[C@@H](CCCNC(=N)N)C(=O)NCC(=O)N[C@@H](CCCNC(=N)N)C(=O)N[C@@H](CCCCNC(=O)[C@@H](N)CCCCNC(=O)[C@@H](N)CCCCNC(=O)CC[C@H](NC(=O)CCCCCCCCCCCOc1ccc(C(=O)O)cc1)C(=O)O)C(=O)O)C(C)C` [Example 7, N^ε26-[(2S)-2-amino-6-[[(2S)-2-amino-6-[[(4S)-4-carboxy-4-[12-(4-carboxyphenoxy)dodecanoylamino]butanoyl]amino]hexanoyl]amino]hexanoyl], N^ε37-[(2S)-2-amino-6-[[(2S)-2-amino-6-[[(4S)-4-carboxy-4-[12-(4-carboxyphenoxy)dodecanoylamino]butanoyl]amino]hexanoyl]amino]hexanoyl]-[Aib^8,Arg^34,Lys^37]-GLP-1-(7-37)-peptide], the half-life in data set [1] was 17 h; in data set [2], 69 h. Further, on human GLP-1 receptor, the EC50 was found to be 136 pM. Also, the “PD in pig, food intake (% of vehicle) for hours 0-24” value in data set [3] (0-24 h) was 14 % of vehicle. For the same compound, the “PD in pig, food intake (% of vehicle) for hours 24-48” value in data set [3] (24-48 h) was 18 % of vehicle. Besides, the “reduction in food intake (in words)” value in data set [3] (versus vehicle) is on record as “very nice reduction in food intake”.
As to `CC[C@H](C)[C@H](NC(=O)[C@H](Cc1ccccc1)NC(=O)[C@H](CCC(=O)O)NC(=O)[C@H](CCCCNC(=O)[C@@H](N)CCCCNC(=O)COCCOCCNC(=O)COCCOCCNC(=O)CC[C@H](NC(=O)CCCCCCCCCOc1ccc(C(=O)O)cc1)C(=O)O)NC(=O)[C@H](C)NC(=O)[C@H](C)NC(=O)[C@H](CCC(N)=O)NC(=O)[C@H](CCC(=O)O)NC(=O)[C@H](CCC(=O)O)NC(=O)[C@H](CC(C)C)NC(=O)[C@H](Cc1ccc(O)cc1)NC(=O)[C@H](CO)NC(=O)[C@H](CO)NC(=O)[C@@H](NC(=O)[C@H](CC(=O)O)NC(=O)[C@H](CO)NC(=O)[C@@H](NC(=O)[C@H](Cc1ccccc1)NC(=O)[C@@H](NC(=O)CNC(=O)[C@H](CCC(=O)O)NC(=O)C(C)(C)NC(=O)[C@@H](N)Cc1c[nH]cn1)[C@@H](C)O)[C@@H](C)O)C(C)C)C(=O)N[C@@H](C)C(=O)N[C@@H](Cc1c[nH]c2ccccc12)C(=O)N[C@@H](CC(C)C)C(=O)N[C@H](C(=O)N[C@@H](CCC(N)=O)C(=O)NCC(=O)N[C@@H](CCCNC(=N)N)C(=O)N[C@@H](CCCCNC(=O)[C@@H](N)CCCCNC(=O)COCCOCCNC(=O)COCCOCCNC(=O)CC[C@H](NC(=O)CCCCCCCCCOc1ccc(C(=O)O)cc1)C(=O)O)C(=O)O)C(C)C` [Example 18] (H-H[Aib]EGTFTSDVSSYLEEQAAK([εLys-AEEA-AEEA-γGlu-Decanoyl(10-(4-HOOC-PhO))])EFIAWLVQGRK([εLys-AEEA-AEEA-γGlu-Decanoyl(10-(4-HOOC-PhO))])-OH; N-terminus and C-terminus assumed), the half-life is 20 h in data set [1] and 47 h in data set [2]. This compound yielded an EC50 at human GLP-1 receptor of 75 pM.
Taken in the same sequence, the figures for `CC[C@H](C)[C@H](NC(=O)[C@H](Cc1ccccc1)NC(=O)[C@H](CCC(=O)O)NC(=O)[C@H](CCCCNC(=O)[C@@H](N)CCCCNC(=O)[C@@H](N)CCCCNC(=O)CC[C@H](NC(=O)CCCCCCCCCCOc1ccc(C(=O)O)cc1)C(=O)O)NC(=O)[C@H](C)NC(=O)[C@H](C)NC(=O)[C@H](CCC(N)=O)NC(=O)CNC(=O)[C@H](CCC(=O)O)NC(=O)[C@H](CC(C)C)NC(=O)[C@H](Cc1ccc(O)cc1)NC(=O)[C@H](CO)NC(=O)[C@H](CO)NC(=O)[C@@H](NC(=O)[C@H](CC(=O)O)NC(=O)[C@H](CO)NC(=O)[C@@H](NC(=O)[C@H](Cc1ccccc1)NC(=O)[C@@H](NC(=O)CNC(=O)[C@H](CCC(=O)O)NC(=O)C(C)(C)NC(=O)[C@@H](N)Cc1c[nH]cn1)[C@@H](C)O)[C@@H](C)O)C(C)C)C(=O)N[C@@H](C)C(=O)N[C@@H](Cc1c[nH]c2ccccc12)C(=O)N[C@@H](CC(C)C)C(=O)N[C@H](C(=O)N[C@@H](CCCNC(=N)N)C(=O)NCC(=O)N[C@@H](CCCNC(=N)N)C(=O)N[C@@H](CCCCNC(=O)[C@@H](N)CCCCNC(=O)[C@@H](N)CCCCNC(=O)CC[C@H](NC(=O)CCCCCCCCCCOc1ccc(C(=O)O)cc1)C(=O)O)C(=O)O)C(C)C` [Example 20, N^ε26-[(2S)-2-amino-6-[[(2S)-2-amino-6-[[(4S)-4-carboxy-4-[11-(4-carboxyphenoxy)undecanoylamino]butanoyl]amino]hexanoyl]amino]hexanoyl], N^ε37-[(2S)-2-amino-6-[[(2S)-2-amino-6-[[(4S)-4-carboxy-4-[11-(4-carboxyphenoxy)undecanoylamino]butanoyl]amino]hexanoyl]amino]hexanoyl]-[Aib^8,Arg^34,Lys^37]-GLP-1-(7-37)-peptide] were 14 h, 59 h and 71 pM.
